Laboratory results as given in patent publication US20260166038A1, “METHOD OF ENHANCING THE EFFICACY OF A TARGETED PROTEIN DEGRADER AND ITS DERIVATIVE THERAPEUTICS” (ShanghaiTech University, priority 2022, published 2026).

Experiments:
IKZF3 [1] = target: T1, IKZF3 (Homo sapiens, UniProt Q96SW2+Q9UKT9); experiment: Western blot of IKZF3 in pomalidomide-resistant OPM2-P5000 and OPM2 cells; format: cell-based; conditions: pomalidomide-resistant myeloma cell line (OPM2-P5000; FIG. 7b OPM2); rapamycin 20 nM
T1 construct: Cell pellets were collected after 24 h and were lysed using RIPA; The protein levels were analyzed using Western blot; endogenous in cells; host or cells: OPM2, RPMI-8226, U266 myeloma cell lines
Procedure: (§1) The protein levels were analyzed using Western blot.
In this embodiment, the myeloma cell line OPM2, which is sensitive to pomalidomide was subjected to long-term high-dose pomalidomide treatment to obtain the pomalidomide-resistant cell line OPM2-P5000. Pomalidomide and CC-92480 (0.5 nM, 25 nM) were administered to OPM2 cells, and pomalidomide and CC-92480 (0.5 nM, 3 μM) were administered to OPM2-P5000 cells. These treatments were combined with a fixed concentration of rapamycin (20 nM).

OPM2-P5000 = experiment: Cell viability of pomalidomide-resistant OPM2-P5000 cells; format: cell-based, human; conditions: CC-92480 3 μM + rapamycin 20 nM, viability at 0, 96, 120 h
Procedure: (§2) • (1) OPM2 cells in the logarithmic growth phase were seeded in a 96-well plate at 3000 cells/well. The volume of the cell suspension is 90 μl/well. • (2) Each well was added with 10 μl lenalidomide (Len), pomalidomide (Pom), CC-122, or CC-220 down the concentration gradients starting from 1 μM. Control groups with no drug treatment were set. Each drug had 7 gradients with 3 replicates. • (3) The plate was placed in a humidity-controlled environment (37° C., 5% CO2) for 5 days. • (4) Subsequently, 50 μl of CTL solution was added to each well under dark conditions. Then, the plate was placed on a shaker and shaken for 10 minutes, followed by reading on a microplate reader. • (5) The average absorbance values of the 3 replicates were used to plot the cell viability curves of OPM2 under drug treatment.
(§3) Cell viability was measured using the CellTiter-Lumi luminescent cell viability assay kit (Beyotime), with luminescence intensity reflecting cell viability, through an ATP-catalyzed luciferase reaction in the cell culture medium.
Meanwhile, this embodiment provides the following groups for cell viability test in the pomalidomide-resistant myeloma cell line OPM2-P5000: rapamycin alone (20 nM), pomalidomide alone (3 μM), CC-92480 alone (3 μM), combination treatment, and control. Cell viability was assessed on Oh, 96 h and 120 h post drug treatment using the same method as in Embodiment 1.

GSPT1 [2] = target: T2, GSPT1 (Homo sapiens, UniProt P15170+Q96SW2); experiment: Western blot of GSPT1 protein level in leukemia cell lines HL60 and MOLT-4; format: cell-based; conditions: degrader (10 nM CC90009) co-administered with varying concentrations of rapamycin; HL60, MOLT-4; 12 h
Procedure: as §1
The samples were collected after 12 h, and the protein levels were examined by the same method as in Embodiment 3.

GSPT1 [3] = target: T2, GSPT1; experiment: Western blot of GSPT1 protein level in pancreatic cancer cell line KP4; format: cell-based; set-up: endogenous in cells; host or cells: KP4 pancreatic cancer cell line; conditions: 24 hours
[4] = test system: DEPDC5 knockout OPM2 cells; experiment: Cell viability (CellTiter-Lumi) of DEPDC5 knockout OPM2 under immunomodulatory drugs; format: cell-based, human; conditions: DEPDC5-KO OPM2; drug gradients starting from 1 μM; 5 days
Procedure: as §2, §3

RBM39 = target: T3, RBM39 (Homo sapiens, UniProt Q14498); experiment: Western blot of RBM39 protein level in OPM2; format: cell-based; conditions: indisulam 1 μM + rapamycin 20 nM, 24 hours
T3 construct: endogenous in cells; host or cells: OPM2 myeloma cell line
T3 sequence (Q14498 1-530): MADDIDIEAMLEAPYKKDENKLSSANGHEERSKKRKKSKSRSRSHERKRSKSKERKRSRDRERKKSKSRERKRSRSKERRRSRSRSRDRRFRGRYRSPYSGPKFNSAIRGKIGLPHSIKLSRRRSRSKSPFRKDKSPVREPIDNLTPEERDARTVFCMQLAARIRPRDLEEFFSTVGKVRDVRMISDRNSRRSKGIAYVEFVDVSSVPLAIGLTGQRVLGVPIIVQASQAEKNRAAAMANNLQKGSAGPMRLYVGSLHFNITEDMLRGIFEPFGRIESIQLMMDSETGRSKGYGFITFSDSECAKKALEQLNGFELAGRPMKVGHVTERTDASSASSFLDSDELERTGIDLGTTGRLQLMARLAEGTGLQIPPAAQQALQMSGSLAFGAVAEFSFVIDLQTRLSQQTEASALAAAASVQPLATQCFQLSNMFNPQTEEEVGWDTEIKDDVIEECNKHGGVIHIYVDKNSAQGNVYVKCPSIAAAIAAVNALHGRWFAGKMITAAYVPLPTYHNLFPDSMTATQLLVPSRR
Procedure: as §1
Different concentrations of indisulam (0, 0.1, 1 μm) and a fixed concentration of rapamycin (20 nM) were added to the myeloma cell line OPM2. After 24 hours, protein levels were analyzed using the same method as in Embodiment 3.

BRD4 = target: T4, BRD4 (Homo sapiens, UniProt O60885); experiment: Western blot of BRD4 protein level in OPM2; format: cell-based; conditions: ARV-771 0.5 nM or 1 nM + rapamycin 20 nM, 24 hours
T4 construct: endogenous in cells; host or cells: OPM2 myeloma cell line
Procedure: as §1
Different concentrations of ARV-771 (0, 0.5, 1 nM) and a fixed concentration of rapamycin (20 nM) were added to the myeloma cell line OPM2.

Wee1 = target: T5, Wee1 (Homo sapiens, UniProt P30291); experiment: Western blot of Wee1 protein level in OPM2; format: cell-based; conditions: ZNL-02-096 10 nM + rapamycin 20 nM, 24 hours
T5 construct: endogenous in cells; host or cells: OPM2 myeloma cell line
Procedure: as §1
Different concentrations of ZNL-02-096 (0, 1, 10 nM) and a fixed concentration of rapamycin (20 nM) were added to the myeloma cell line OPM2.

MM1S = experiment: Cell viability, pomalidomide combined with rapamycin, MM1S; format: cell-based, human; conditions: MM1S (pomalidomide-sensitive); viability at 0, 48, 96, 120 h; P<0.001
Procedure: as §2, with “Each drug had 7 gradients with 3 replicates. • (3) The plate was placed in a humidity-controlled environment (37° C., 5% CO2) for 5 days. • (4) Subsequently, 50 μl of CTL solution was added to each well under dark conditions.” left out
as §3
(§4) In this embodiment, the pomalidomide-sensitive myeloma cell lines (MM1S, H929 and OPM2) and the pomalidomide-resistant myeloma cell lines (U266 and RPMI-8226) were treated with mTOR signaling pathway inhibitor rapamycin alone, pomalidomide alone, a combination of rapamycin and pomalidomide, and control, respectively. Cell viability was assessed on Oh, 48 h, 96 h and 120 h post drug treatment. The detection used on each day is the same and has been described in Embodiment 1.

H929 = experiment: Cell viability, pomalidomide combined with rapamycin, H929; format: cell-based, human; conditions: H929 (pomalidomide-sensitive); viability at 0, 48, 96, 120 h; P<0.001
Procedure: as §2, with “Each drug had 7 gradients with 3 replicates. • (3) The plate was placed in a humidity-controlled environment (37° C., 5% CO2) for 5 days. • (4) Subsequently, 50 μl of CTL solution was added to each well under dark conditions.” left out
as §3, §4

OPM2 = experiment: Cell viability, pomalidomide combined with rapamycin, OPM2; format: cell-based, human; conditions: OPM2 (pomalidomide-sensitive); viability at 0, 48, 96, 120 h; P<0.001
Procedure: as §2, with “Each drug had 7 gradients with 3 replicates. • (3) The plate was placed in a humidity-controlled environment (37° C., 5% CO2) for 5 days. • (4) Subsequently, 50 μl of CTL solution was added to each well under dark conditions.” left out
as §3, §4

U266 = experiment: Cell viability, pomalidomide combined with rapamycin, U266; format: cell-based, human; conditions: U266 (pomalidomide-resistant); viability at 0, 48, 96, 120 h; P<0.001
Procedure: as §2, with “Each drug had 7 gradients with 3 replicates. • (3) The plate was placed in a humidity-controlled environment (37° C., 5% CO2) for 5 days. • (4) Subsequently, 50 μl of CTL solution was added to each well under dark conditions.” left out
as §3, §4

RPMI-8226 = experiment: Cell viability, pomalidomide combined with rapamycin, RPMI-8226; format: cell-based, human; conditions: RPMI-8226 (pomalidomide-resistant); viability at 0, 48, 96, 120 h; P<0.001
Procedure: as §2, with “Each drug had 7 gradients with 3 replicates. • (3) The plate was placed in a humidity-controlled environment (37° C., 5% CO2) for 5 days. • (4) Subsequently, 50 μl of CTL solution was added to each well under dark conditions.” left out
as §3, §4

IKZF3 [5] = target: T1, IKZF3; experiment: Western blot of IKZF3 protein level in myeloma cell lines; format: cell-based
IKZF1 = IKZF1 (Homo sapiens, UniProt Q13422+Q96SW2)
Procedure: 25 nM of pomalidomide and varying concentrations of rapamycin were added to myeloma cell lines OPM2, RPMI-8226, and U266, respectively. Cell pellets were collected after 24 h and were lysed using RIPA. The protein levels were analyzed using Western blot.
Different concentrations of ZNL-02-096 (0, 1, 10, 10^2, 10^3 nM) and a fixed concentration of pomalidomide (25 nM) were added to the myeloma cell line OPM2. After 24 hours, protein levels were detected using the same method as in Embodiment 3.

[6] = pomalidomide 25 nM + varying concentrations of everolimus, OPM2, 24 hours

T1 sequence (Q9UKT9 whole entry): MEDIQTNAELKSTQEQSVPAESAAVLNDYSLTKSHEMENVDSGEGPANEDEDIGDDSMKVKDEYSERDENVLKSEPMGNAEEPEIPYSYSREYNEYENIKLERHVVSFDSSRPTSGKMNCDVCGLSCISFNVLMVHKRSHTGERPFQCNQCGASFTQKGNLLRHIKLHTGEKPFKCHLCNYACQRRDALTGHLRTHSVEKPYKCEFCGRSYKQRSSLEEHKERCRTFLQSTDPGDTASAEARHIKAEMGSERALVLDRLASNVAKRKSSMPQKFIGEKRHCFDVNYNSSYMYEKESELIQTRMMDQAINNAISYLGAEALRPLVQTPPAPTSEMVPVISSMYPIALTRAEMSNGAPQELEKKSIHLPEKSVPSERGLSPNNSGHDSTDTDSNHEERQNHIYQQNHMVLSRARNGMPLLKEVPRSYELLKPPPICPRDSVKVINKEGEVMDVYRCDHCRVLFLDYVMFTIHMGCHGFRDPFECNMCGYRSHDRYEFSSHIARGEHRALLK
T1 sequence (Q96SW2 whole entry): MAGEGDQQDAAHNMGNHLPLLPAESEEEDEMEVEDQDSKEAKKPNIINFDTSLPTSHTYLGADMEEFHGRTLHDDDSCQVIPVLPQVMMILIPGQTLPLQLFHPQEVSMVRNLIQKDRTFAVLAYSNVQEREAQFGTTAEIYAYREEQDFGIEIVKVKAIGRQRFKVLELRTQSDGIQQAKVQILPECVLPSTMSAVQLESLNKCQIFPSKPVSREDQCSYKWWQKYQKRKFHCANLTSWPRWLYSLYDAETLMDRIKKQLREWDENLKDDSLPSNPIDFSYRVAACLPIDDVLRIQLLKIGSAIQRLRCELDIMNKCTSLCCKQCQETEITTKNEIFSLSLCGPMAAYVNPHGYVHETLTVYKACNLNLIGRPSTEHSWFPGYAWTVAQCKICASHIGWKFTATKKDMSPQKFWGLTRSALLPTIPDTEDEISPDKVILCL
T1 sequence (Q16531 whole entry partner): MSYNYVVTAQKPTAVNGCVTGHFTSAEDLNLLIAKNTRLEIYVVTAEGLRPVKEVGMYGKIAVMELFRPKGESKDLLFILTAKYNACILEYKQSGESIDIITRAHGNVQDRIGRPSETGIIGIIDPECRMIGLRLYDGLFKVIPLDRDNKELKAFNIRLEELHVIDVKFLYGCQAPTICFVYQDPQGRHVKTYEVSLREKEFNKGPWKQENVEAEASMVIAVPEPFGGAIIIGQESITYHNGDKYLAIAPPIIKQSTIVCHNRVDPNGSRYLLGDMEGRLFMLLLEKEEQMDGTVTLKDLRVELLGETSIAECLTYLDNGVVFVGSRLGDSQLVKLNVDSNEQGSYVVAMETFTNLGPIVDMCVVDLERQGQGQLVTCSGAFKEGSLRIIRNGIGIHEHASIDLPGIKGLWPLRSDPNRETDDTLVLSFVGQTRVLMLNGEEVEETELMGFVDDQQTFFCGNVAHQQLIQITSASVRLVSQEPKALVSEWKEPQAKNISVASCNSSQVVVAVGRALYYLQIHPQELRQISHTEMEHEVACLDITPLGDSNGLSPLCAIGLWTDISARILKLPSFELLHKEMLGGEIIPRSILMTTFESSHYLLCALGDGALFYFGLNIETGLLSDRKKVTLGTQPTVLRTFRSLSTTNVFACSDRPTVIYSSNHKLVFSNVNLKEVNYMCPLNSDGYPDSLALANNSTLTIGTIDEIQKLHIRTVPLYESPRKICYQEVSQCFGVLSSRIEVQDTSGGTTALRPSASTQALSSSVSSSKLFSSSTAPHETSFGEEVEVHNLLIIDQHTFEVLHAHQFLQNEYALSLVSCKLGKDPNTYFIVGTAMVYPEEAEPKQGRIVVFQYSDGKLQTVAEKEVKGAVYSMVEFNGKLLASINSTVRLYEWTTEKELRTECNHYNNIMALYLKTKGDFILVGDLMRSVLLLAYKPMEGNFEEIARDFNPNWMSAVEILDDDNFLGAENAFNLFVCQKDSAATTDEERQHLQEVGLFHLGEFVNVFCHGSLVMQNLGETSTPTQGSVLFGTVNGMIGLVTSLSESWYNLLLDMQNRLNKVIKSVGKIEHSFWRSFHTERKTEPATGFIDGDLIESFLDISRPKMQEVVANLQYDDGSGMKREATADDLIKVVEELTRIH
T2 sequence (P15170 whole entry): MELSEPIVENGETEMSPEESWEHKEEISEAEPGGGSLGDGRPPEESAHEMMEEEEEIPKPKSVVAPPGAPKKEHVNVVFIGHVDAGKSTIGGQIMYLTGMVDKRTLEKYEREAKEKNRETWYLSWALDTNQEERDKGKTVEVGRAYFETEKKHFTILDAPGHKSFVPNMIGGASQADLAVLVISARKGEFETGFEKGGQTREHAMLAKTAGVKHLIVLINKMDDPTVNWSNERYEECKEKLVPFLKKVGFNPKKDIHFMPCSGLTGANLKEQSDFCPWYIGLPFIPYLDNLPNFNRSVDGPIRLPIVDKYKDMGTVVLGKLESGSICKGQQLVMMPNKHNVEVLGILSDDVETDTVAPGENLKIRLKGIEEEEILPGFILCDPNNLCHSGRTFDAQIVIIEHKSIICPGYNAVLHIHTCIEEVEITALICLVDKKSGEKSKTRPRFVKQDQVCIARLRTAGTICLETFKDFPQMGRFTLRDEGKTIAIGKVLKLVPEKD
T2 sequence (Q96SW2 whole entry): as the sequence (Q96SW2 whole entry) above
T2 sequence (Q16531 whole entry partner): as the sequence (Q16531 whole entry partner) above
IKZF1, sequence (Q16531 whole entry): as the sequence (Q16531 whole entry partner) above
IKZF1, sequence (Q96SW2 whole entry): as the sequence (Q96SW2 whole entry) above
IKZF1, sequence (Q13422 whole entry): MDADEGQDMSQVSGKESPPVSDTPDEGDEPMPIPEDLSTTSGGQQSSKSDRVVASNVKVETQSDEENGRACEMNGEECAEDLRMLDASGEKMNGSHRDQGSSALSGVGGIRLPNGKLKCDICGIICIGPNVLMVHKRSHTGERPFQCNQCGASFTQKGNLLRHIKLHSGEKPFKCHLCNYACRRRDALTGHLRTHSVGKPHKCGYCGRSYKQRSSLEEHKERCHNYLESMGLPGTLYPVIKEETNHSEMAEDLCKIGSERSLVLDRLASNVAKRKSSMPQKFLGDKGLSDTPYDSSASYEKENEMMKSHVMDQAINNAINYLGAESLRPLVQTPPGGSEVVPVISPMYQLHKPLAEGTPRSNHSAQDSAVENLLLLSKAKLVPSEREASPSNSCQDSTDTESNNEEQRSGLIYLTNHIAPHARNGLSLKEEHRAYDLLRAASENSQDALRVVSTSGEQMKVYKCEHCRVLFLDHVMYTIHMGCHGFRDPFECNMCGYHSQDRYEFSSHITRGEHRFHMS
T5 sequence (P30291 whole entry): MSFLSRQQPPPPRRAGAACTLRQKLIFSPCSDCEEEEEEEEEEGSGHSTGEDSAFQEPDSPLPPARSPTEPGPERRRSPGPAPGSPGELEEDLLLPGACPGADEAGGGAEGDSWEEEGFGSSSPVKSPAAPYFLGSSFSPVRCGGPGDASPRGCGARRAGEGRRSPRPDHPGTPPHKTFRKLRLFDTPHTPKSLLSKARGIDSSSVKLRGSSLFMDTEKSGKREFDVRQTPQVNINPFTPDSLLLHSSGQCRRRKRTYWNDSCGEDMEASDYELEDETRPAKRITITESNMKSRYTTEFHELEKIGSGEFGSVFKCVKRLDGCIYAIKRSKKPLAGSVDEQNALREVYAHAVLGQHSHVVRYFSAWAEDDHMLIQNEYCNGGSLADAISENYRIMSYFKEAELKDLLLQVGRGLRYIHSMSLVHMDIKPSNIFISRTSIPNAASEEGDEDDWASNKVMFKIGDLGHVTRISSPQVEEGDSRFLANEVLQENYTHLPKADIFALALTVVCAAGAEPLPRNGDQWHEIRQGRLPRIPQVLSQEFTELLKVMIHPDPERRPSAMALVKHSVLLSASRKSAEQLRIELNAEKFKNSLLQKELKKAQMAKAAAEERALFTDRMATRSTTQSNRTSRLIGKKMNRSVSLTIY

SMILES: N#Cc1ccc(N2CCN(Cc3ccc(COc4cccc5c4CN([C@H]4CCC(=O)NC4=O)C5=O)cc3)CC2)c(F)c1 [CC-92480]
- degradation of the substrate IKZF3, co-administration with rapamycin (IKZF3 [1]): enhance the degradation
- killing effect on myeloma cells, co-administered with rapamycin (OPM2-P5000): stronger killing effect

SMILES: Cc1ccc(NC(=O)NCc2ccc3c(c2)CN(C2CCC(=O)NC2=O)C3=O)cc1Cl (stereo not shown) [CC-885]
- level of substrate protein GSPT1 (GSPT1 [2]): significantly reduced
- degradation of the substrate GSPT1, combination with everolimus (GSPT1 [3]; CC-90009 1 μM or CC-885 0.1 μM + everolimus 0.01, 0.1 μM): stronger degradation effect
- degradation of the substrate GSPT1, combination with rapamycin (GSPT1 [3]; CC-90009 1 μM or CC-885 0.1 μM + rapamycin 0.01, 0.1 μM): stronger degradation effect

SMILES: Nc1cccc2c1CN(C1CCC(=O)NC1=O)C2=O (stereo not shown) [lenalidomide]
- cell viability (killing curve) of DEPDC5 knockout cells compared to the control group [4]: exhibit resistance

SMILES: O=C1CC[C@H](N2Cc3c(OCc4ccc(CN5CCOCC5)cc4)cccc3C2=O)C(=O)N1 [CC-220]
- cell viability (killing curve) of DEPDC5 knockout cells compared to the control group [4]: exhibit resistance

SMILES: NS(=O)(=O)c1ccc(S(=O)(=O)Nc2cccc3c(Cl)c[nH]c23)cc1 [indisulam]
- degradation of the substrate RBM39, combination with rapamycin vs alone (RBM39): stronger degradation effect

SMILES: Cc1nc2cccc(N)c2c(=O)n1C1CCC(=O)NC1=O (stereo not shown) [CC-122]
- cell viability (killing curve) of DEPDC5 knockout cells compared to the control group [4]: exhibit resistance

SMILES: Cc1ncsc1-c1ccc([C@H](C)NC(=O)[C@@H]2C[C@@H](O)CN2C(=O)[C@@H](NC(=O)COCCCOCCNC(=O)C[C@@H]2N=C(c3ccc(Cl)cc3)c3c(sc(C)c3C)-n3c(C)nnc32)C(C)(C)C)cc1 [ARV-771]
- degradation of the substrate BRD4, combination with rapamycin vs alone (BRD4): stronger degradation effect

SMILES: C=CCn1c(=O)c2cnc(Nc3ccc(N4CCN(CCCNc5cccc6c5C(=O)N(C5CCC(=O)NC5=O)C6=O)CC4)cc3)nc2n1-c1cccc(C(C)(C)O)n1 (stereo not shown) [ZNL-02-096]
- degradation of the substrate Wee1, combination with rapamycin vs alone (Wee1): stronger degradation effect

SMILES: Nc1cccc2c1C(=O)N(C1CCC(=O)NC1=O)C2=O (stereo not shown) [pomalidomide]
- cell viability (killing curve) of DEPDC5 knockout cells compared to the control group [4]: exhibit resistance
- killing of myeloma cells, combination with rapamycin vs pomalidomide alone (MM1S): stronger effect in killing myeloma cells
- killing of myeloma cells, combination with rapamycin vs pomalidomide alone (H929): stronger effect in killing myeloma cells
- killing of myeloma cells, combination with rapamycin vs pomalidomide alone (OPM2): stronger effect in killing myeloma cells
- killing of myeloma cells, combination with rapamycin vs pomalidomide alone (U266): stronger effect in killing myeloma cells
- killing of myeloma cells, combination with rapamycin vs pomalidomide alone (RPMI-8226): stronger effect in killing myeloma cells
- level of the substrate IKZF3 (IKZF3 [5]; 25 nM pomalidomide co-administered with varying concentrations of rapamycin, OPM2, RPMI-8226, U266, 24 h): significantly reduced
- degradation of the substrate IKZF3, combination with everolimus (IKZF3 [5]; [6]): stronger degradation effect
- degradation of IKZF1 (IKZF1; 25 nM pomalidomide co-administered with rapamycin, OPM2, RPMI-8226, U266, 24 h): enhances the degradation
- degradation of the substrate IKZF1, combination with everolimus (IKZF1; [6]): stronger degradation effect
- degradation of the substrate IKZF3, co-administration with rapamycin (IKZF3 [1]): enhance the degradation
